Laboratory results taken from patent publication US20250235418A1, “Butyrate Analogues and Methods of Use for HIF Stabilization and Treatment of Bowel Disease” (THE REGENTS OF THE UNIVERSITY OF COLORADO, A BODY CORPORATE, priority 2022, published 2025).
“Also recorded” adds a separate entry of the source. Read-outs that look alike come from different tables or passages of the source. Values belong to the compound of their own block, whether it stands above or below them.

Experiments:
[1] = system: PHD (2-OG accumulation) in T84 IECs; assay: 2-OG levels in T84 cells as biomarker of PHD inhibition; type: cell-based; conditions: 3 h, 10 mM butyrate, 30 μM IOX2
Experimental: (B) 2-OG concentrations in T84 cells treated with 10 mM butyrate with or without 1 mM MCPA or 30 μM IOX2 for 3 h
The relationship between butyrate and HIF, were examined whether butyrate influences PHD activity by monitoring 2-OG levels. […] In this, we considered such 2-OG accumulation as a metabolic biomarker of PHD inhibition (FIG. 3A).

[2] = system: HIF-1α / PHDs in murine colon tissue; assay: rectal gavage of butyrate or IOX2 in antibiotic SCFA-depleted mice; type: in vivo; conditions: 1 h, 100 mM butyrate, 1.5 mM IOX2
PHD2181-402 [3] = biological target: T1, PHD2181-402 (Homo sapiens, UniProt Q9GZT9); assay: bioluminescent succinate detection assay of recombinant PHD2181-402 activity/inhibition; type: biochemical; conditions: for fold less effective at inhibiting PHD2181-402 than butyrate: compared with butyrate
T1 construct: made in house
Text: To pinpoint if butyrate inhibits PHDs directly, we expressed recombinant PHD derived from the human PHD2 sequence. There are three human PHDs: PHD1, PHD2, and PHD3, with PHD2 being the most abundant and expressed in the majority of tissues, the most important regulator of HIF, particularly HIF-1α, and the only PHD that is embryonically lethal when deleted. PHD1 is exclusively localized to the nucleus, whereas PHD2 is mainly cytoplasmic, and PHD3 is both. […] Sequence comparisons and modeling studies indicate that the PHD2 active site is highly conserved among the PHDs.
IC50s depend on exact experimental conditions, making direct comparisons and global applications difficult.

PHDs = conditions: range across studies, assay conditions vary; read-out: reported IC50s; cited from earlier work
PHD2181-402 [4] = biological target: T1, PHD2181-402; assay: WaterLOGSY 1D NMR binding to PHD2181-402; conditions: 10 mM SCFA, 25 μM PHD2181-402
Text: Protons attached to C4 were selectively inverted and acted as source of magnetization transfer. […] (G) Protons attached to C2 were selectively inverted.
Measurements were repeated 3 times.
This method enables sensitive and robust detection of binding (dissociation constants as weak as μM to low mM) based on the magnetization transfer between water molecules, proteins, and ligands of interest in close proximity via dipolar proton-proton cross-relaxation (nuclear Overhauser effect, NOE). […] Binding and non-binding ligands can be distinguished in a WaterLOGSY spectrum via their opposite signs in relation to water for their corresponding peaks.
This technique allows for mapping of the ligand pharmacophore by monitoring the response of individual protons to an increase of ROEs contribution to the overall cross relaxation rate.

HIF1α in caco-2 cells = assay: HIF1α MSD assay and immunoblot in caco-2 cells; type: cell-based; conditions: for BNIP3 immunoblot over time: c2bbe cell lysates, various timepoints
Experimental: (A) Structures of butyrate derivatives investigated in initial screen for HIF stabilization. […] (D) Dose response study of HIF1a accumulation in T84 cells treated with decreasing concentrations of MBA and BA for 6 h.
(A) Immunoblots of HIF1a protein over time after exposure of T84 cells to 5 mM BA and MBA. (B) Mesoscale assay of HIF1a protein over time in caco-2 cells treated with 5 mM MBA compared to veh. […] Data are presented as mean+S.E.M, *p<0.05, **p<0.01, ***p<0.001.
HIF1a Mesoscale assay of BA derivatives investigated in caco-2 (A) and T84 (B) intestinal epithelial cells (5 mM, 6 h), identifying MBA as a promising candidate in HIF1a stabilization (Veh=HBSS+).
(§1) Endogenous and non-endogenous butyrate derivatives with specifically chosen functional groups at different positions within the small molecule and assess their effects on HIF stabilization (FIG. 21A). To study a small library of butyrate derivatives we employed an electrochemiluminescence based assay to quantify HIF1α levels using the Meso Scale Discovery (HIF1α MSD assay, http://www.mesoscale.com) technology. Similar to the sandwich enzyme-linked immunosorbent assay (ELISA), this technology captures and detects HIF1α protein using two specific antibodies but utilizes electrochemiluminescence-based signal generation and detection. Using lysates from intestinal epithelial cells (IECs) caco-2 and T84 exposed to a physiological relevant concentration of 5 mM butyrate derivatives for 4h, this assay was employed to determine HIF1α protein concentration. A bona-fide and potent PHD2 inhibitor (IOX4) was used to stabilize HIF1α as a positive control. Various butyrate derivatives increased HIF1α relative concentration in both cell lines compared to low signals detected in untreated lysates. […] We decided to focus on this interesting butyrate derivative for further studies.
(§2) To elucidate the effectiveness of MBA to stabilize HIF1α over time and possibly shine light on how quickly it can be metabolized in-vitro, time-course studies where performed between BA and MBA, IOX4 was used as a positive control. […] Employing the HIF1α MSD assay, we screened for various timepoints in caco-2 cell lysates exposed to MBA (5 mM). […] BNIP3 is involved in cell survival and is a known HIF1α target that is induced through chemical stabilization of HIF or hypoxia. BNIP3 promoter comprises a functional hypoxia response element (HRE) and can be activated by HIF1α.[5] Parallel to our HIF stabilization time course studies, we wanted to assess the transcriptional activity of the stabilized protein over time.

HIF1α in T84 cells = assay: HIF1α immunoblot in T84 cells (MBA vs BA); type: cell-based; conditions: for HIF1α stabilization over time (immunoblot): 5 mM BA and MBA, IOX4 positive control
Experimental: (A) Structures of butyrate derivatives investigated in initial screen for HIF stabilization. Immunoblot of HIF1a protein levels in Caco-2 cells (B) and T84 cells (C) exposed to veh (HBSS+), […], or 5 mM butyrate derivatives for 6h. (D) Dose response study of HIF1a accumulation in T84 cells treated with decreasing concentrations of MBA and BA for 6 h.
(A) Immunoblots of HIF1a protein over time after exposure of T84 cells to 5 mM BA and MBA. (B) Mesoscale assay of HIF1a protein over time in caco-2 cells treated with 5 mM MBA compared to veh. (C) HIF1a and HIF target (BNIP3) protein in caco-2 cells exposed to veh (HBSS+), […] or 5 mM MBA. Data are presented as mean+S.E.M, *p<0.05, **p<0.01, ***p<0.001.
as §1, §2

[5] = system: HIF target genes in T84 cells; assay: real-time PCR of HIF target genes BNIP3 and CAIX in T84 cells; type: cell-based; conditions: 16h
Experimental: (A) Exposure of T84 cells to Veh, BA or MBA (5 mM, 16 h) induced HIF target gene expression of CAIX and BNIP3. […] (C) Non-targeting control and T84 HIF1b depleted cells were analyzed for HIF1b expression by western blotting, shown with a representative blot. Quantification of HIF1b decrease was performed using ACTB-normalized densitometry. qPCR data was analyzed by One-way ANOVA with Bonferroni for post hoc correction and presented as mean±S.E.M, **p<0.01, ***p<0.001, ****p<0.0001 of three independent experiments.
Following these findings, we then explored if the MBA-induced stabilization of HIF was reflected in the transcriptional regulation of target genes. We utilized real-time PCR to study the influence of MBA mediated HIF stabilization in the induction of established HIF targets, BNIP3 (cell survival) and CAIX (pH regulation).
Furthermore, to confirm MBA-induced HIF transcriptional activity, we quantified the induction of BNIP3 and CAIX by BA or MBA (5 mM, 16h) in lentiviral shRNA-mediated knockdown of HIF1β relative to non-targeting shRNA controls. […] These findings confirm that through MBA exposure, HIF is stabilized and it is transcriptionally active.

HIF regulated targets = assay: intraperitoneal injection in C57BL/6 mice, HIF regulated targets (EPO, GLUT1); type: in vivo; conditions: MBA 80 mg/kg, 24h
Experimental: Erythropoietin (EPO) is regulated by HIF stabilization. (A) EPO protein in blood serum was assessed by mesoscale assay (n=6-8). qPCR mRNA expression of HIF target mGLUT1 in kidney (B) and colon tissue (C) (n=3-8). Data analyzed by One-way ANOVA with Tukey for post hoc correction and presented as mean±S.E.M of two independent experiments, *p<0.05, **p<0.01, ***p<0.001, ****p<0.0001 […]
At 24 h, mice were sacrificed followed by exsanguination, extraction of right kidney and distal colon for analysis of HIF stabilization and HIF target gene expression. SHBA induces HIF regulated targets in vivo. Erythropoietin (EPO) is regulated by HIF stabilization. (A) EPO protein in blood serum was assessed by mesoscale assay (n=6-8). (B) qPCR mRNA expression of HIF target mGLUT1 in colon tissue (n=3-4). Data are presented as mean±S.E.M of two independent experiments, *p<0.05, **p<0.01.
A typical physiologic response to hypoxia is the increase in red blood cell production. Naturally, HIF is in charge of this response by regulating cell-type specific gene expression that leads to increased levels of the hormone erythropoietin (EPO).[10] […] We lastly explored the in-vivo effects of MBA in mediating induction of genes tightly regulated by HIF. […] After 24h of treatment, they were sacrificed and quickly exsanguinated to measure EPO levels in serum. […] Furthermore, we studied the induction of GLUT1, another classic HIF target responsible for the transport of various monosaccharides. Kidney and colon tissue were analyzed by real-time PCR to compare BA and MBA head-to-head. […] These findings support the ability of MBA to stabilize HIF in-vivo leading to the induction of classic target genes and transcription of a tightly regulated protein EPO.

[6] = calculated from measured IC50 accounting for substrate conversion, n = 4, error: SEM, read-out: True IC50 for PHD2181-402

T1 sequence (Q9GZT9 181-402): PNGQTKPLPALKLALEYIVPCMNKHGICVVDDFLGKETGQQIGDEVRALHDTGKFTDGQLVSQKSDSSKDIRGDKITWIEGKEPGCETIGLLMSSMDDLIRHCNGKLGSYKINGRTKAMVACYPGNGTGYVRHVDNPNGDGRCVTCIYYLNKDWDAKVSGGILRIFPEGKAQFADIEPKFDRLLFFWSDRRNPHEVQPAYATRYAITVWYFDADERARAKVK

IC50 (PHD2181-402 [3]; 1 μM PHD2181-402, 10 μM 2-OG, 10-minute reaction, n=5-12, error: SEM, read-out: true half maximal inhibitory concentration (IC50) for PHD2181-402): 1.9 ± 0.5 mM
Compound: COC(=O)CNC(=O)C(=O)OC [DMOG, dimethyloxalylglycine, reference compound]
IC50 (PHDs): 0.00289 to 4 mM

fold less effective at inhibiting PHD2181-402 than butyrate (PHD2181-402 [3]): ~10 fold
binding to PHD2181-402 by WaterLOGSY (PHD2181-402 [4]): no binding
Compound: CC(=O)O [acetate, Acetic acid, reference compound]

fold less effective at inhibiting PHD2181-402 than butyrate (PHD2181-402 [3]): ~3 fold
binding to PHD2181-402 by WaterLOGSY (PHD2181-402 [4]): no binding
Compound: CCCCC(=O)O [valerate, valeric acid, reference compound]

fold less effective at inhibiting PHD2181-402 than butyrate (PHD2181-402 [3]): ~10 fold
binding to PHD2181-402 by WaterLOGSY (PHD2181-402 [4]): no binding
Compound: CCC(=O)O [propionate, propionic acid, reference compound]

The remaining lines, values behind:

Compound: O=C(O)CNC(=O)c1c(O)c2ccccc2n(Cc2ccccc2)c1=O [IOX2, reference compound]
2-OG levels compared to control [1]: to lesser extent than butyrate
colon tissue 2-OG levels after antibiotics [2]: rescued
mRNA expression of HIF-1α targets Bnip3, Bnip3l, Glu1 after antibiotics [2]: rescued

Compound: CCC(CC)C(=O)O [2-Ethylbutyrate]
IC50 (PHD2181-402 [3]; [6]): 77 ± 6 mM

Compound: CC(C)(C)OC(=O)c1ccc(-n2[nH]cc(-n3ccnn3)c2=O)nc1 [IOX4, reference compound]
BNIP3 immunoblot over time (HIF1α in caco-2 cells): supported active HIF1α transcription
HIF1α stabilization over time (immunoblot) (HIF1α in T84 cells; T84 cells): no longer effective at the 72h timepoint

Compound: CC(O)CC(=O)O (centres unmarked) [3-Hydroxybutyrate]
IC50 (PHD2181-402 [3]; [6]): 14 ± 1 mM

Compound: O=C(O)CCCS [MBA, 4-Mercaptobutyrate]
BNIP3 immunoblot over time (HIF1α in caco-2 cells): supported active HIF1α transcription
HIF1α immunoblot compared with IOX4 (HIF1α in caco-2 cells; caco-2, 5 mM MBA vs IOX4 (10 μM)): at least as much as IOX4
HIF1α immunoblot compared with butyrate (HIF1α in caco-2 cells; caco-2, equimolar concentration (5 mM)): exceeding the capabilities of butyrate
HIF1α relative concentration over time (MSD assay) (HIF1α in caco-2 cells; caco-2 cell lysates, 5 mM, up to 72h): rapidly stabilized (3h)
HIF1α relative concentration (MSD assay) (HIF1α in caco-2 cells; caco-2 lysates, 5 mM, compared with IOX4): exceeded HIF stabilization in caco-2 compared to the potent IOX4 PHD2 inhibitor
HIF target gene induction compared to BA ([5]; T84, 5 mM): more potent than BA; also recorded: more prominent induction of HIF target genes compared to BA
induction of HIF target genes BNIP3 and CAIX ([5]; T84, 5 mM): significant induction
induction of BNIP3 and CAIX in cells lacking HIF1β ([5]; T84 HIF1β shRNA knockdown, 5 mM): complete loss of induction
GLUT1 mRNA in colon tissue (HIF regulated targets; IP, BA 73 mg/kg): significantly increased in colon tissue
GLUT1 mRNA in kidney (HIF regulated targets; IP, BA 73 mg/kg): induction of GLUT1 in kidney
EPO concentration in serum (HIF regulated targets; one IP injection, compared to vehicle, DMOG and BA): significantly higher concentration of EPO
HIF1α immunoblot compared with butyrate (HIF1α in T84 cells; T84, equimolar concentration (5 mM)): exceeding the capabilities of butyrate
HIF1α stabilization over time (immunoblot) (HIF1α in T84 cells; T84 cells): observed clearly up to 72h
dose response of HIF1α accumulation (HIF1α in T84 cells; T84 cells, decreasing concentrations, 6 h): can stabilize HIF at the low millimolar range
